The results in this text go back to PubChem BioAssay (NCI).

Each structure is given as a SMILES string.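 Five concentrations, 48 hours, 96-well plates. TGI: total growth inhibition.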

The first experiment has as its system HOP-18 NSCLC. The experiment can be described thus: DTP human tumour cell line panel, 48 h.
For the compound `CCOc1ccc2c(c1)[n+]([O-])c(-c1ccc(Cl)cc1)c(N)[n+]2[O-]`, the TGI is > 100 µM.
The same measure, in the same setting: as for `CN(C)CC/C(=N\Nc1ccc([N+](=O)[O-])cc1)c1ccccc1`, the figure is 20.5 µM.
Still for that read-out and setting: as for `Clc1ccc(C2SCc3nc4ccccc4n32)c(Cl)c1` (centres undefined), the figure is 34.4 µM.

In the next experiment the test system is HOP-62 NSCLC. The experiment can be described thus: DTP human tumour cell line panel, 48 h.
Regarding `CCOc1ccc2c(c1)[n+]([O-])c(-c1ccc(Cl)cc1)c(N)[n+]2[O-]`, the TGI was > 100 µM.
Consider `C=CCN1C(=O)/C(=C/c2ccco2)N=C1SC/C=C/C`, for which the TGI is > 100 µM.
As for `CN(C)CC/C(=N\Nc1ccc([N+](=O)[O-])cc1)c1ccccc1`, the TGI was determined as 28.5 µM.
`Clc1ccc(C2SCc3nc4ccccc4n32)c(Cl)c1` (centres undefined) returned a TGI of 27.5 µM.

In a further experiment the test system is HOP-92 NSCLC. The experiment can be described thus: DTP human tumour cell line panel, 48 h.
For the compound `CCOc1ccc2c(c1)[n+]([O-])c(-c1ccc(Cl)cc1)c(N)[n+]2[O-]`, the TGI is > 100 µM.
Same read-out and setting: for `C=CCN1C(=O)/C(=C/c2ccco2)N=C1SC/C=C/C` the value was > 100 µM.
`Clc1ccc(C2SCc3nc4ccccc4n32)c(Cl)c1` (centres undefined) showed a TGI of 11 µM.

Another experiment concerns HS 578T breast. As to the kind of experiment: DTP human tumour cell line panel, 48 h.
As to `C=CCN1C(=O)/C(=C/c2ccco2)N=C1SC/C=C/C`, the TGI is > 100 µM.

The next experiment deals with HT29 colon. As to the kind of experiment: DTP human tumour cell line panel, 48 h.
Consider `CCOc1ccc2c(c1)[n+]([O-])c(-c1ccc(Cl)cc1)c(N)[n+]2[O-]`, for which the TGI is > 100 µM.
Still for that read-out and setting: as for `C=CCN1C(=O)/C(=C/c2ccco2)N=C1SC/C=C/C`, the figure is > 100 µM.
As for `CN(C)CC/C(=N\Nc1ccc([N+](=O)[O-])cc1)c1ccccc1`, the TGI was found to be 21.2 µM.
The compound `Clc1ccc(C2SCc3nc4ccccc4n32)c(Cl)c1` (centres undefined) displayed a concentration for total growth inhibition (TGI) of 30.4 µM.

For a further experiment, the system named is IGROV1 ovarian. The experiment can be described thus: DTP human tumour cell line panel, 48 h.
Consider `CCOc1ccc2c(c1)[n+]([O-])c(-c1ccc(Cl)cc1)c(N)[n+]2[O-]`, for which the TGI is > 100 µM.
Consider `C=CCN1C(=O)/C(=C/c2ccco2)N=C1SC/C=C/C`, for which the TGI is > 100 µM.
On the same count and under the same terms, for `CN(C)CC/C(=N\Nc1ccc([N+](=O)[O-])cc1)c1ccccc1` the value was 24.9 µM; for `Clc1ccc(C2SCc3nc4ccccc4n32)c(Cl)c1` (centres undefined), 31.5 µM.

Another experiment has as its system K-562 leukemia. As to the kind of experiment: DTP human tumour cell line panel, 48 h.
For `CCOc1ccc2c(c1)[n+]([O-])c(-c1ccc(Cl)cc1)c(N)[n+]2[O-]`, the TGI was > 100 µM.
Same read-out and setting: as for `C=CCN1C(=O)/C(=C/c2ccco2)N=C1SC/C=C/C`, the figure is > 100 µM.
The compound `CN(C)CC/C(=N\Nc1ccc([N+](=O)[O-])cc1)c1ccccc1` came in with a TGI of 15.9 µM.
`Clc1ccc(C2SCc3nc4ccccc4n32)c(Cl)c1` (centres undefined) gave a TGI of 39.6 µM.

The next experiment concerns KM12 colon. The experiment can be described thus: DTP human tumour cell line panel, 48 h.
As for `CCOc1ccc2c(c1)[n+]([O-])c(-c1ccc(Cl)cc1)c(N)[n+]2[O-]`, the TGI was > 100 µM.
Take `C=CCN1C(=O)/C(=C/c2ccco2)N=C1SC/C=C/C`: the TGI is > 100 µM.
As for `CN(C)CC/C(=N\Nc1ccc([N+](=O)[O-])cc1)c1ccccc1`, the TGI amounted to 22.3 µM.
For the compound `Clc1ccc(C2SCc3nc4ccccc4n32)c(Cl)c1` (centres undefined), the TGI was 29.4 µM.

The test system of another experiment is KM20L2 colon. As to the kind of experiment: DTP human tumour cell line panel, 48 h.
As for `CCOc1ccc2c(c1)[n+]([O-])c(-c1ccc(Cl)cc1)c(N)[n+]2[O-]`, the TGI was > 100 µM.
Same read-out and setting: for `CN(C)CC/C(=N\Nc1ccc([N+](=O)[O-])cc1)c1ccccc1` the value was 15.2 µM; for `Clc1ccc(C2SCc3nc4ccccc4n32)c(Cl)c1` (centres undefined), 36.3 µM.

Another experiment relates to LOX IMVI melanoma. The experiment can be described thus: DTP human tumour cell line panel, 48 h.
Compound `C=CCN1C(=O)/C(=C/c2ccco2)N=C1SC/C=C/C` came in with a TGI of 80.6 µM.
Same read-out and setting: for `CN(C)CC/C(=N\Nc1ccc([N+](=O)[O-])cc1)c1ccccc1` the value was 18.1 µM; for `Clc1ccc(C2SCc3nc4ccccc4n32)c(Cl)c1` (centres undefined), 29.4 µM.

For the next experiment, the system named is LXFL 529 NSCLC. The experiment can be described thus: DTP human tumour cell line panel, 48 h.
`CCOc1ccc2c(c1)[n+]([O-])c(-c1ccc(Cl)cc1)c(N)[n+]2[O-]`: the TGI is > 100 µM.
With `CN(C)CC/C(=N\Nc1ccc([N+](=O)[O-])cc1)c1ccccc1`, the TGI was found to be 19.3 µM.
Still for that read-out and setting: for `Clc1ccc(C2SCc3nc4ccccc4n32)c(Cl)c1` (centres undefined) the value was 24.5 µM.

Another experiment deals with M14 melanoma. As to the kind of experiment: DTP human tumour cell line panel, 48 h.
Turning to `CCOc1ccc2c(c1)[n+]([O-])c(-c1ccc(Cl)cc1)c(N)[n+]2[O-]`, the TGI was > 100 µM.
Same read-out and setting: as for `C=CCN1C(=O)/C(=C/c2ccco2)N=C1SC/C=C/C`, the figure is > 100 µM; as for `CN(C)CC/C(=N\Nc1ccc([N+](=O)[O-])cc1)c1ccccc1`, 30.8 µM.
For the compound `Clc1ccc(C2SCc3nc4ccccc4n32)c(Cl)c1` (centres undefined), the TGI was found to be 28 µM.

Another experiment deals with M19-MEL melanoma. As to the kind of experiment: DTP human tumour cell line panel, 48 h.
As for `Clc1ccc(C2SCc3nc4ccccc4n32)c(Cl)c1` (centres undefined), the TGI was 28.9 µM.

The subject of another experiment is MALME-3M melanoma. The experiment can be described thus: DTP human tumour cell line panel, 48 h.
As to `CCOc1ccc2c(c1)[n+]([O-])c(-c1ccc(Cl)cc1)c(N)[n+]2[O-]`, the TGI was > 100 µM.
The same measure, in the same setting: for `C=CCN1C(=O)/C(=C/c2ccco2)N=C1SC/C=C/C` the value was > 100 µM; for `CN(C)CC/C(=N\Nc1ccc([N+](=O)[O-])cc1)c1ccccc1`, 39.9 µM.
For the compound `Clc1ccc(C2SCc3nc4ccccc4n32)c(Cl)c1` (centres undefined), the TGI is 32.5 µM.

Another experiment relates to MCF7 breast. As to the kind of experiment: DTP human tumour cell line panel, 48 h.
`C=CCN1C(=O)/C(=C/c2ccco2)N=C1SC/C=C/C`: the TGI is 65.1 µM.

For a further experiment, the system named is MDA-MB-231 breast. The experiment can be described thus: DTP human tumour cell line panel, 48 h.
In the case of `C=CCN1C(=O)/C(=C/c2ccco2)N=C1SC/C=C/C`, the TGI is > 100 µM.

For the next experiment, the system named is MDA-MB-435. The experiment can be described thus: DTP human tumour cell line panel, 48 h.
Turning to `C=CCN1C(=O)/C(=C/c2ccco2)N=C1SC/C=C/C`, the TGI was > 100 µM.

Another experiment concerns MDA-N. The experiment can be described thus: DTP human tumour cell line panel, 48 h.
For the compound `C=CCN1C(=O)/C(=C/c2ccco2)N=C1SC/C=C/C`, the TGI was determined as 77.5 µM.

The test system of the next experiment is MOLT-4 leukemia. As to the kind of experiment: DTP human tumour cell line panel, 48 h.
Turning to `CCOc1ccc2c(c1)[n+]([O-])c(-c1ccc(Cl)cc1)c(N)[n+]2[O-]`, the TGI was > 100 µM.
Consider `C=CCN1C(=O)/C(=C/c2ccco2)N=C1SC/C=C/C`, for which the TGI is 54.7 µM.
`CN(C)CC/C(=N\Nc1ccc([N+](=O)[O-])cc1)c1ccccc1` showed a TGI of 24.5 µM.
Same read-out and setting: for `Clc1ccc(C2SCc3nc4ccccc4n32)c(Cl)c1` (centres undefined) the value was 34.6 µM.

For the next experiment, the system named is NCI-H226 lung. The experiment can be described thus: DTP human tumour cell line panel, 48 h.
Consider `CCOc1ccc2c(c1)[n+]([O-])c(-c1ccc(Cl)cc1)c(N)[n+]2[O-]`, for which the TGI is > 100 µM.

As a reminder, the TGI is the concentration at which net growth stops. Higher therefore signals lower sensitivity of the cells.
